pIC50: −log10 of the molar value.
Biological target: T1, 5-HT1A serotonin receptors (Rattus norvegicus, UniProt P19327)
T1 construct: rat hippocampal membrane homogenate; from tissue; host or cells: rat hippocampus, membrane homogenate
T1 sequence (P19327 1-422): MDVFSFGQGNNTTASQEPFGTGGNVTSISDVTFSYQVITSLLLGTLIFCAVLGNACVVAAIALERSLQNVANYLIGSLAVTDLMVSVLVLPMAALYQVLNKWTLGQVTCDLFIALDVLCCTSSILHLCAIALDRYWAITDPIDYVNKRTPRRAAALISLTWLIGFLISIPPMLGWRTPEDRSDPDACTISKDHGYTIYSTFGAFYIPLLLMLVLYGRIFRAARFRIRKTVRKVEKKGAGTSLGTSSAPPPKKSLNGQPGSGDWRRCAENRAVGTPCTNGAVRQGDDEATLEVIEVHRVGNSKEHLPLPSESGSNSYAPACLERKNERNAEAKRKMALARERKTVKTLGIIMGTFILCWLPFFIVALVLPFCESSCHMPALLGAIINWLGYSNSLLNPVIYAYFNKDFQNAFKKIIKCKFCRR
Assay: displacement of [3H] 8-OHDPAT from 5-HT1A serotonin receptors in rat hippocampal membrane homogenate
Assay type: binding
Details: [3H] 8-OHDPAT displacement
From the text: High affinity for the serotonin 5-HT1A receptor was established by testing the claimed compound's ability to displace [^3 H] 8-OHDPAT (dipropylaminotetralin) from the 5-HT1A serotonin receptors in rat hippocampal membrane homogenate following the procedure of B. S. Alexander and M. D. Wood, J. Pharm. Pharmacol. 1988, 40, 888-891. […] Based upon this receptor binding data, the compounds of this invention are characterized as anxiolytic and/or antidepressant agents useful in the treatment of depression and in alleviating anxiety. As such, the compounds may be administered neat or with a pharmaceutical carrier to a patient in need thereof. The pharmaceutical carrier may be solid or liquid.

| Structure (SMILES) | pIC50 |
| --- | --- |
| CC1(C(=O)N[C@@H](CN2CCN(c3cccc4[nH]ccc34)CC2)c2ccccc2)CCCCC1 [Example 1] | 8.36 |
| CC1(C(=O)N[C@H](CN2CCN(c3cccc4[nH]ccc34)CC2)c2ccccc2)CCCCC1 [Example 2] | 7.45 |
